The values below come from patent publication US6900216B2, “Dihydroimidazo[2,1-b]thiazole and dihydro-5h-thiazolo[3,2-A]pyrimidines as antidepressant agents” (Knoll GmbH, priority 2000, dated 2005).

Each structure is given as a SMILES string.

Test [1] addresses T1, 5-HT1A receptors (Rattus norvegicus, UniProt P19327).
T1 construct: Hippocampal tissue from the brains of male Sprague-Dawley rats; from tissue; host or cells: rat hippocampal membranes
T1 sequence (P19327 1-422): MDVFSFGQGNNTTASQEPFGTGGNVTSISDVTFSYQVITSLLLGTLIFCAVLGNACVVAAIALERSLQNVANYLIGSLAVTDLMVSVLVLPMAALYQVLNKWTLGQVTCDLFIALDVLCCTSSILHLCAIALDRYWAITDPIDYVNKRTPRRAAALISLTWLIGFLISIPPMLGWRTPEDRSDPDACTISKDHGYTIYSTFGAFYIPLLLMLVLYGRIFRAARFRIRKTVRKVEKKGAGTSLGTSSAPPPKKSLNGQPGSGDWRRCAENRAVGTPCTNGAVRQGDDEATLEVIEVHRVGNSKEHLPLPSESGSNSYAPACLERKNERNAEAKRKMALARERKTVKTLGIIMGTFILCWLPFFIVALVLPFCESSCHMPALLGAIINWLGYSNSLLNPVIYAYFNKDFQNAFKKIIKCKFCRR
Put plainly: 5-HT1A binding: inhibition of [3H]8-OH-DPAT binding to rat hippocampal membranes. The note with it: [3H]8-OH-DPAT 1 nM, rat hippocampal membranes; fit to data from three experiments. The procedure:
Hippocampal tissue from the brains of male Sprague-Dawley rats (Charles River; weight range 150-250 g) was homogenised in ice-cold 50 mM Tris-HCl buffer (pH 7.7 when measured at 25° C., 1:40 w/v) and centrifuged at 40,000 g at 4° C. for 10 minutes. The pellet was rehomogenised in the same buffer, incubated at 37° C. for 10 minutes and centrifuged at 40,000 g at 4° C. for 10 minutes. The final pellet was resuspended in 50 mM Tris-HCl buffer (pH 7.7) containing 4 mM CaCl2, 0.1% L-ascorbic acid and 10 μM pargyline hydrochloride (equivalent to 6.25 mg wet weight of tissue/ml) and used immediately in the binding assay.
Membranes (400 μl; equivalent to 2.5 mg wet weight of tissue/tube) were incubated with 50 μl of [^3H]8-hydroxy-2-(dipropylamino)tetralin ([^3H]8-OH-DPAT) at a single concentration of 1 nM and 50 μl of distilled water (total binding) or 50 μl of test compound (at a single concentration of 10^−6 M or at 10 concentrations ranging from 10^−11-10^−3 M) or 50 μl of 5-HT (10 μM, non-specific binding) at 25° C. for 30 minutes. The incubation was terminated by rapid filtration under vacuum through Skatron 11734 filters using a Skatron Cell Harvester. Filters were washed with ice-cold 50 mM Tris-HCl buffer, pH 7.7 (at 25° C., wash setting 9,9,0). The scored filter paper discs were punched out into vials, scintillation fluid added and radioactivity determined by liquid scintillation counting.
(§1) For each of these tests measuring the ability of compounds of Formula I to displace standard ligands from 5-HT1A receptors and 5-hydroxytryptamine (5-HT) and noradrenaline (NA) reuptake sites and muscarinic receptors in vitro, the percentage displacement of specific binding of tritiated ligand by 10^−6 M test compound was calculated in the following way.
(§2) Firstly, specific binding of tritiated ligand in the absence (A) and presence (B) of test compound was determined:
(§3) In the absence of compound: A(dpm)=Total binding (dpm)−Non-specific binding (dpm) In the presence of compound (10^−6 M): B(dpm)=Binding at 10^−6M (dpm)−Non-specific binding (dpm)
(§4) The specific binding of tritiated ligand in the presence (B) of compound was then converted to a percentage of specific binding of tritiated ligand in the absence (A) of compound: % Specific binding at 10^−6 M=B(dpm)/A(dpm)×100
(§5) The percentage displacement of specific binding of tritiated ligand by the test compound (10^−6 M) was then obtained by subtraction of the percentage specific binding in the presence of compound from the percentage specific binding in the absence of compound, which is taken as the maximum binding and so equals 100%:
(§6) % Displacement at 10^−6 M=100−% Specific binding at 10^−6 M.
(§7) In some cases, displacement curves were then produced for compounds which displaced ≧50% of specific binding of the tritiated ligand at 10^−6 M using a range of concentrations of the compound. The Ki was then calculated by simultaneous fitting using equations derived from the Feldman equations by robust non-linear regression to data from three experiments simultaneously (De Lean et al., 1978; Munson and Rodbard, 1980; Feldman, 1992). Munson P J and Rodbard D. Ligand: a versatile computerised approach for characterisation of ligand binding systems. Anal Biochem 1980; 107: 220. Feldman HA. Mathematical theory of complex ligand binding systems at equilibrium: some methods for parameter fitting. Anal Biochem 1992: 48, 317. De Lean A, Munson P J and Rodbard D. Simultaneous analysis of families of sigmoidal curves: application to bioassay, radioligand assay, and physiological dose-response curves. Am J Physiol 1978: 235 (2), E97-E102.
(§8) The results obtained in the above tests for 5-HT1A binding and 5-HT and NA uptake and muscarinic binding for the final products of Examples 1-39 hereinafter are given in Table 1 below. Kis are in nM. % Figures are for % displacement at 10^−6 M for a single determination.

The target in test [2] is T2, 5-HT reuptake sites (Rattus norvegicus, UniProt P31652).
T2 construct: Frontal cortical tissue from the brains of male Charles River rats; from tissue; host or cells: rat frontal cortical membranes
T2 sequence (P31652 whole entry): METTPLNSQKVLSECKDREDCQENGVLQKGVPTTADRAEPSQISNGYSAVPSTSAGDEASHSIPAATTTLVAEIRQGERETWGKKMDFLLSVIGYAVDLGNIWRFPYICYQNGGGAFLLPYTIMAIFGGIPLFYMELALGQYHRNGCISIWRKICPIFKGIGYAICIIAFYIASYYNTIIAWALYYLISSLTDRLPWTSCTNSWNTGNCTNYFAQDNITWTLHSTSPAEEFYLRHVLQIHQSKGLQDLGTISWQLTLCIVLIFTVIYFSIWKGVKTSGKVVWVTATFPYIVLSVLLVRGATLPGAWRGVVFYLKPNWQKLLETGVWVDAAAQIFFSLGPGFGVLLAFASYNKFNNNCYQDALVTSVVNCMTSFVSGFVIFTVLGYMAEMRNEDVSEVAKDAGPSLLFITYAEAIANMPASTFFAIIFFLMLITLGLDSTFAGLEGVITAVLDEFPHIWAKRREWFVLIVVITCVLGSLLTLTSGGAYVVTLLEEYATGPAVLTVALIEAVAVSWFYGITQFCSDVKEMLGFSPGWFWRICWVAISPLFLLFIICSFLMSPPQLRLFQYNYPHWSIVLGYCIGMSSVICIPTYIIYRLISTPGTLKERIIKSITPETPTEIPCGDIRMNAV
Put plainly: 5-HT uptake: displacement of [3H]citalopram from 5-HT reuptake sites, rat frontal cortical membranes. The note with it: [3H]citalopram 1.3 nM, rat frontal cortical membranes; fit to data from three experiments. The format is binding. The procedure: Frontal cortical tissue from the brains of male Charles River rats weighing 150-250 g was homogenised in ice-cold 50 mM Tris-HCl, pH 7.4 (when measured at 25° C.) containing 120 mM sodium chloride and 5 mM potassium chloride (Tris buffer; 1:30 w/v) and centrifuged at 40,000 g for 10 minutes. The supernatant was discarded and the pellet rehomogenised in Tris buffer, 1:60 w/v, and centrifuged at 40,000 g for 10 minutes. This step was repeated a further time. The final pellet was resuspended in 50 mM Tris-HCl, pH 7.4 containing 120 mM sodium chloride and 5 mM potassium chloride (equivalent to 3.125 mg wet weight of tissue/ml) and used immediately in the binding assay. All centrifugations were performed at 4° C.
Membranes (400 μl; equivalent to 1.25 mg wet weight of tissue/tube) were incubated with 50 μl [^3H]citalopram at a single concentration of 1.3 nM and 50 μl of distilled water (total binding) or 50 μl of test compound (at a single concentration of 10^−6 M or at 10 concentrations ranging from 10^−11-10^−3 M) or 50 μl of paroxetine (0.5 μM; non-specific binding) for 1 h at 27° C. Membrane bound radioactivity was recovered by filtration under vacuum through Skatron 11734 filters presoaked in 0.5% PEI using a Skatron Cell Harvester. Filters were then washed in ice-cold 50 mM Tris-HCl buffer, pH 7.4 (at 25° C., wash setting 9,9,0). The scored filter paper discs were punched out into vials, scintillation fluid added and radioactivity determined by liquid scintillation counting.
as §1, §2, §3, §4, §5, §6, §7, §8
On the technique in general: Loss of bound radioactivity is the signal in a displacement assay; it reports binding, not function.

Regarding `Br.CCC1=C(c2cccc3sccc23)N2CCN=C2S1` [Example 13, 3-(benzo[b]thiophen-4-yl)-2-ethyl-5,6-dihydroimidazo[2,1-b]thiazole hydrobromide], the Ki in test [1] worked out at 15.5 nM; in test [2] it was 84 nM.

A word on the Ki: it is a measure of affinity in units of concentration, obtained from inhibition or displacement.
